Measured values published in PMC8222254, “Self-assembly of an anion receptor with metal-dependent kinase inhibition and potent in vitro anti-cancer properties” (Nature Communications, 2021).
Values joined by “and” are separate entries in the source; they are usually repeats but may differ in a detail not shown here. Equal entries are not always repeated.

Tests used:
Assay in all cases: Kinase inhibition screen, cell-free 33P ATP assay at 10 μM
Format in all cases: biochemical
[1] = molecular target: 140 purified human kinases (Homo sapiens, UniProt O75116); details: ROCK 2
Chain of 140 purified human kinases (Homo sapiens, UniProt O75116) (O75116 whole entry): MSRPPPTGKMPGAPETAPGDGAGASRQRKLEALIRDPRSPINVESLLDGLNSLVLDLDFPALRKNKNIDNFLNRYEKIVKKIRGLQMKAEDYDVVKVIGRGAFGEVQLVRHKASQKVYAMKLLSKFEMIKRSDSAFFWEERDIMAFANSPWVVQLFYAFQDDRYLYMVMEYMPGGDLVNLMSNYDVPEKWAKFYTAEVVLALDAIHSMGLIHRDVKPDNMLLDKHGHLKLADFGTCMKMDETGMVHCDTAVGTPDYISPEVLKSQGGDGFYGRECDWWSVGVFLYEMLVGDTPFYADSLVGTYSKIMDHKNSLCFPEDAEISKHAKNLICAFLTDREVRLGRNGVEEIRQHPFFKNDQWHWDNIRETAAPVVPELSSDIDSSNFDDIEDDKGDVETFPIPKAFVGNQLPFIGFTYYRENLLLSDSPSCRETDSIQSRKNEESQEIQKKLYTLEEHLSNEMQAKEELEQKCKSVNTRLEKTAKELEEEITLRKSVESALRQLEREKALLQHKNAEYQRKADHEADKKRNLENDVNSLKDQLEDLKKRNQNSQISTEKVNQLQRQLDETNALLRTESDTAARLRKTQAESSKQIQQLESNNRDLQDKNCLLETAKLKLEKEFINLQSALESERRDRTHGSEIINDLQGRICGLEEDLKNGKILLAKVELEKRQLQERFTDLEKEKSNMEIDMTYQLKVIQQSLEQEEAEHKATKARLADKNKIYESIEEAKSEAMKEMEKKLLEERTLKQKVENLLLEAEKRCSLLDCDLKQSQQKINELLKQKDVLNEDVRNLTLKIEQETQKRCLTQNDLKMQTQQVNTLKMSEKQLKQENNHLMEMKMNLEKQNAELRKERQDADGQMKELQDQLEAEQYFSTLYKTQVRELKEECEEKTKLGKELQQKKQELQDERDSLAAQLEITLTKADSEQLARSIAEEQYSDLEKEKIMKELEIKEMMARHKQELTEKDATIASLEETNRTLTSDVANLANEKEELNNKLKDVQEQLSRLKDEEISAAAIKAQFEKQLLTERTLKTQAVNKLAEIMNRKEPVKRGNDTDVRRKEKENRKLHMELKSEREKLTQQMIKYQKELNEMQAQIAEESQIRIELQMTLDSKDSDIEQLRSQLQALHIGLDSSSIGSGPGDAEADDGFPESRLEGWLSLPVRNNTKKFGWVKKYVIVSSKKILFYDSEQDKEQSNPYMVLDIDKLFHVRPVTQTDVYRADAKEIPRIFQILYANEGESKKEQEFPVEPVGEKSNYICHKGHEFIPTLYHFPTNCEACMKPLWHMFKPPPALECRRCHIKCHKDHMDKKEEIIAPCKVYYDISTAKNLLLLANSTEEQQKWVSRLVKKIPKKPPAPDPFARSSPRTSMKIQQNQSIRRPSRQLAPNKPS
Outline: (§1)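 Each complex tested in duplicate at 10 μM; cell-free radiometric assay using ^33P ATP on purified enzymes. Hits mapped by HGNC symbol onto the kinome tree.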

[2] = molecular target: 140 purified human kinases (Homo sapiens, UniProt P06213); details: IR
Outline: as §1

[3] = molecular target: 140 purified human kinases (Homo sapiens, UniProt P24941); details: CDK2-Cyclin A
Outline: as §1

[4] = molecular target: T1, 140 purified human kinases (Homo sapiens, UniProt P33981); details: TTK
T1 sequence (P33981 1-857): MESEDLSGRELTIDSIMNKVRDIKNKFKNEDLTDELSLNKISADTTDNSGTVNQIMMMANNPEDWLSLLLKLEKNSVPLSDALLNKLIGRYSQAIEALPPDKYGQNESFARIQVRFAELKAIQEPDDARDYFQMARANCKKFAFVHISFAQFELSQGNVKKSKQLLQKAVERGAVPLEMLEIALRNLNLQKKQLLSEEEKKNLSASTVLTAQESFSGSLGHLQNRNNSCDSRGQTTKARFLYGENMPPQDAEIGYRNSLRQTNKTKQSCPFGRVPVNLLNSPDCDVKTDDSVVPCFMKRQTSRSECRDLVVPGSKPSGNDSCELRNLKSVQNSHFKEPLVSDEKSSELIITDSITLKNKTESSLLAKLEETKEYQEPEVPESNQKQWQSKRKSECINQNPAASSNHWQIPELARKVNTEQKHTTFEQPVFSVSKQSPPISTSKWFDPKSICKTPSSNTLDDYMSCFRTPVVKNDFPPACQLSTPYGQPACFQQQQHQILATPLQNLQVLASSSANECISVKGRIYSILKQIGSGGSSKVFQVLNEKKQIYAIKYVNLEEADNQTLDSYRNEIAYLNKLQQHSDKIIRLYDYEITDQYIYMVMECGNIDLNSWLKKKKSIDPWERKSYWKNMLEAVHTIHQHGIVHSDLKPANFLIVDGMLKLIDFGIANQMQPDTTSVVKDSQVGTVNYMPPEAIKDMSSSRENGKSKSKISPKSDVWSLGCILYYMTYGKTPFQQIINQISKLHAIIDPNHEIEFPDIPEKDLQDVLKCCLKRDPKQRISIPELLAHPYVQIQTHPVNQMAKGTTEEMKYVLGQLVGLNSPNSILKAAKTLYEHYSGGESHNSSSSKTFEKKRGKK
Outline: as §1

[5] = molecular target: 140 purified human kinases (Homo sapiens, UniProt P49760)
Chain of 140 purified human kinases (Homo sapiens, UniProt P49760) (P49760 whole entry): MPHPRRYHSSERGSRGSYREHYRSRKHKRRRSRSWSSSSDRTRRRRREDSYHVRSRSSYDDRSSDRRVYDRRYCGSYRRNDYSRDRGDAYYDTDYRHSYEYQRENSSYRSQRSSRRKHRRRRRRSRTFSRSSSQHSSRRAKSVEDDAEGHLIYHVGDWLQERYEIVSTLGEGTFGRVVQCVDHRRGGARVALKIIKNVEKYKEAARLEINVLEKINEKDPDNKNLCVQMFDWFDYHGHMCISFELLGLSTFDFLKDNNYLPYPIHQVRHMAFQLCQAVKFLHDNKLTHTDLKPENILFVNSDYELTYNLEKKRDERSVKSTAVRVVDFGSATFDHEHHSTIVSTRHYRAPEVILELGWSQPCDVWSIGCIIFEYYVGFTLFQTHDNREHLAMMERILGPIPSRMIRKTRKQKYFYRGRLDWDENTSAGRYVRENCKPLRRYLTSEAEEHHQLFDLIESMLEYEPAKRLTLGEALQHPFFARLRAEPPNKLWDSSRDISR
Outline: as §1

[6] = molecular target: 140 purified human kinases (Homo sapiens, UniProt Q15746); details: SmMLCK
Outline: as §1

[7] = molecular target: 140 purified human kinases (Homo sapiens, UniProt Q96RR4); details: CAMKKb
Chain of 140 purified human kinases (Homo sapiens, UniProt Q96RR4) (Q96RR4 whole entry): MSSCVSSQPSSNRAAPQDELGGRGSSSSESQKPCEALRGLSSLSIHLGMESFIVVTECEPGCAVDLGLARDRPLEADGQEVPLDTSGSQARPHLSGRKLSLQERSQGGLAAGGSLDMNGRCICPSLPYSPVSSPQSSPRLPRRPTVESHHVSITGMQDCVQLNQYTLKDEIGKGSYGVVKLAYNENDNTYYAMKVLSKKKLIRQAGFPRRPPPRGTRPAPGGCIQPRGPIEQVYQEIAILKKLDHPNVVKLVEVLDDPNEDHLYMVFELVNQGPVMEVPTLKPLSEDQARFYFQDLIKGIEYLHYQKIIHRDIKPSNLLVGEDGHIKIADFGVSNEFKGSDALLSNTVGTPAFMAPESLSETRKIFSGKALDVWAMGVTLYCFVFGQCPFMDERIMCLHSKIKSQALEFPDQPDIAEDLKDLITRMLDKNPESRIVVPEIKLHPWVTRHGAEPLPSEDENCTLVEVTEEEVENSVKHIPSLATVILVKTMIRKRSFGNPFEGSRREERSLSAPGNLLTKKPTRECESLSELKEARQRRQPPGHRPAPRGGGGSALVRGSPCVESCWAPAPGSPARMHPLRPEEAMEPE
Outline: as §1

[8] = molecular target: 140 purified human kinases (Homo sapiens, UniProt Q9Y4K4)
Chain of 140 purified human kinases (Homo sapiens, UniProt Q9Y4K4) (Q9Y4K4 whole entry): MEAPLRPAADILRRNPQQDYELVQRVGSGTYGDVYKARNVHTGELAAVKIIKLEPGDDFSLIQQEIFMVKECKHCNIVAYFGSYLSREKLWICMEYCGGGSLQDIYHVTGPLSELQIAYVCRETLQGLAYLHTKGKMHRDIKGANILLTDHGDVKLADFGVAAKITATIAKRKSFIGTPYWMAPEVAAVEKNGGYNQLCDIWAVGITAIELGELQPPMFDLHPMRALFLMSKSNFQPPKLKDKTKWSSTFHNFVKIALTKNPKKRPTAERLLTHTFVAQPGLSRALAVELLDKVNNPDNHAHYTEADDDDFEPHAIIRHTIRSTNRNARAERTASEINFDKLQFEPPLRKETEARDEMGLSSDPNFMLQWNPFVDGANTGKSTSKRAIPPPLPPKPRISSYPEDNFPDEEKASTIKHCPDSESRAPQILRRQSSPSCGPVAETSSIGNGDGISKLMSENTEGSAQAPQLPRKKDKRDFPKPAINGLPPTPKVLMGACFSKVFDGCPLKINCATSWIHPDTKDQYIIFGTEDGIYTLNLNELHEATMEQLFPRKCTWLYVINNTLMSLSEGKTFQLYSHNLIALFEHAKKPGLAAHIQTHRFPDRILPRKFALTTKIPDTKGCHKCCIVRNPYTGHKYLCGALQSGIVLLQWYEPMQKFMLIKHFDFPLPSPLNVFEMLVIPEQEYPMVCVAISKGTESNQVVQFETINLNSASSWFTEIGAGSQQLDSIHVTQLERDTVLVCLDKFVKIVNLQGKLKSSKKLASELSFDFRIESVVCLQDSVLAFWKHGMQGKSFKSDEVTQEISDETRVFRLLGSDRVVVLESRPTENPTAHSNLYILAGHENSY
Outline: as §1

Src = molecular target: T2, Src (Homo sapiens, UniProt P12931); details: for kinase activity of Src: 10 μM complex, cell-free screen; for % Activity Run 1 / % Activity Run 2: 10 µM
T2 construct: His tag (N); host or cells: baculovirus expression system
T2 sequence (P12931 whole entry): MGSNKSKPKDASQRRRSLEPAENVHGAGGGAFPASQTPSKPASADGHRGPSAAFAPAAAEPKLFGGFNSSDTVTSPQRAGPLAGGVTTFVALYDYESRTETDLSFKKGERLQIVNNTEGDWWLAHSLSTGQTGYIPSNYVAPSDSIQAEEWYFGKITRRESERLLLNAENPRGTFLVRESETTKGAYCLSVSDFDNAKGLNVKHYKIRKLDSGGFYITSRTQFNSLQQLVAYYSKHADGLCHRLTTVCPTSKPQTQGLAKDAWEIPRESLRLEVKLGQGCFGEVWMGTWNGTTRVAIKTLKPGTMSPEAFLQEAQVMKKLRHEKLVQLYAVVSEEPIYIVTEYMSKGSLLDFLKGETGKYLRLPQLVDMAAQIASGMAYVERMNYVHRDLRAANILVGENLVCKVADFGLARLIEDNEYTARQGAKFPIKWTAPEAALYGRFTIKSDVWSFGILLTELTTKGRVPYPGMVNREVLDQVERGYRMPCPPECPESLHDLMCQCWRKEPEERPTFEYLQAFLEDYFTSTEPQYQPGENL
Outline: as §1

SMILES: [Cu+2].[Cu+2].[Cu+2].c1ccc(-c2csc(NCCN(CCNc3nc(-c4ccccn4)cs3)CCNc3nc(-c4ccccn4)cs3)n2)nc1.c1ccc(-c2csc(NCCN(CCNc3nc(-c4ccccn4)cs3)CCNc3nc(-c4ccccn4)cs3)n2)nc1 [[L2Cu3]6+]
- % Inhibition Run 1 [1]: 83.5%
- % Inhibition Run 2 [1]: 77.5%
- % Inhibition, Mean [1]: 81%
- mean % activity [1]: 20%
- % Inhibition Run 1 [2]: 20%
- % Inhibition Run 2 [2]: 18.1%
- % Inhibition, Mean [2]: 19%
- mean % activity [2]: 81%
- % activity ([2]; Run 1): 80%
- % activity ([2]; Run 2): 81.9%
- % Activation, Mean value [3]: 9.5%
- % Inhibition Run 1 [3]: -10.1%
- % Inhibition Run 2 [3]: -8.9%
- % Inhibition, Mean [3]: -9.5%
- mean % activity [3]: 110%
- % activity ([3]; Run 1): 110.1%
- % activity ([3]; Run 2): 108.9%
- % Activity Run 1 ([3]; 10 µM): 110.10%
- % Activity Run 2 ([3]; 10 µM): 108.90%
- % Inhibition Run 1 [4]: 41.9%
- % Inhibition Run 2 [4]: 45.5%
- % Inhibition, Mean [4]: 44%
- mean % activity [4]: 56%
- % activity ([4]; Run 1): 58.1%
- % activity ([4]; Run 2): 54.5%
- % Activation, Mean value ([5]; CLK2): 3%
- % Inhibition Run 1 ([5]; CLK2): -9.8%
- % Inhibition Run 2 ([5]; CLK2): 3.9%
- % Inhibition, Mean ([5]; CLK2): -3%
- mean % activity ([5]; CLK2): 103%
- % activity ([5]; CLK2, Run 1): 109.8%
- % activity ([5]; CLK2, Run 2): 96.1%
- % Inhibition Run 1 [6]: 59.8%
- % Inhibition Run 2 [6]: 52.2%
- % Inhibition, Mean [6]: 56%
- mean % activity [6]: 44%
- % activity ([6]; Run 1): 40.2%
- % activity ([6]; Run 2): 47.8%
- % Inhibition Run 1 [7]: 42.1%
- % Inhibition Run 2 [7]: 54.8%
- % Inhibition, Mean [7]: 48%
- mean % activity [7]: 52%
- % activity ([7]; Run 1): 57.9%
- % activity ([7]; Run 2): 45.2%
- % Inhibition Run 1 ([8]; MAP4K5): 54.5%
- % Inhibition Run 2 ([8]; MAP4K5): 51.4%
- % Inhibition, Mean ([8]; MAP4K5): 53%
- mean % activity ([8]; MAP4K5): 47%
- % activity ([8]; MAP4K5, Run 1): 45.5%
- % activity ([8]; MAP4K5, Run 2): 48.6%
- kinase activity of Src (Src): increased
- % Activation, Mean value (Src; Src): 115%
- % Inhibition Run 1 (Src; Src): -109.2%
- % Inhibition Run 2 (Src; Src): -121.7%
- % Inhibition, Mean (Src; Src): -115%
- mean % activity (Src; Src): 215%
- % activity (Src; Src, Run 1): 209.2%
- % activity (Src; Src, Run 2): 221.7%
- % Activity Run 1 (Src; Src): 209.20%
- % Activity Run 2 (Src; Src): 221.70%

SMILES: CC(=O)[O-].CC(=O)[O-].CC(=O)[O-].CC(=O)[O-].CC(=O)[O-].CC(=O)[O-].[Zn+2].[Zn+2].[Zn+2].c1ccc(-c2csc(NCCN(CCNc3nc(-c4ccccn4)cs3)CCNc3nc(-c4ccccn4)cs3)n2)nc1.c1ccc(-c2csc(NCCN(CCNc3nc(-c4ccccn4)cs3)CCNc3nc(-c4ccccn4)cs3)n2)nc1 [[L2Zn3]6+]
- % Activation, Mean value [1]: 17%
- % Inhibition, Mean [1]: -17%
- % Inhibition, Run 1 / Run 2 [1]: -20% and -14%
- mean % activity [1]: 117%
- % Activity Run 1 ([1]; 10 µM): 120.0%
- % Activity Run 2 ([1]; 10 µM): 114.0%
- % activity ([1]; duplicate runs): 120% and 114%
- % Inhibition, Mean [2]: 12%
- mean % activity [2]: 88%
- % activity ([2]; duplicate runs): 80% and 95%
- % Inhibition, Mean [3]: 1.8%
- mean % activity [3]: 98%
- % activity ([3]; duplicate runs): 93% and 103%
- % Inhibition, Mean [4]: 33%
- % Inhibition, Run 1 / Run 2 [4]: 37% and 28%
- mean % activity [4]: 67%
- % activity ([4]; duplicate runs): 63% and 72%
- % Inhibition, Mean ([5]; CLK2): 44%
- % Inhibition, Run 1 / Run 2 ([5]; CLK2): 43% and 45%
- mean % activity ([5]; CLK2): 56%
- % activity ([5]; CLK2, duplicate runs): 57% and 55%
- % Inhibition, Mean [6]: 3.75%
- mean % activity [6]: 96%
- % activity ([6]; duplicate runs): 76% and 117%
- % Inhibition, Mean [7]: 44%
- % Inhibition, Run 1 / Run 2 [7]: 44%
- mean % activity [7]: 56%
- % activity ([7]; duplicate runs): 57% and 56%
- % Inhibition, Mean ([8]; MAP4K5): 60%
- % Inhibition, Run 1 / Run 2 ([8]; MAP4K5): 60% and 59%
- mean % activity ([8]; MAP4K5): 40%
- % activity ([8]; MAP4K5, duplicate runs): 40% and 41%
- kinase activity of Src (Src): increased
- % Activation, Mean value (Src; Src): 75%
- % Inhibition, Mean (Src; Src): -75%
- mean % activity (Src; Src): 175%
- % Activity Run 1 (Src; Src): 169.0%
- % Activity Run 2 (Src; Src): 180.0%
- % activity (Src; Src, duplicate runs): 169% and 180%
